Experimental findings from US20070027150A1 (priority 2005, published 2007) are described below.

pIC50: −log10 of the molar value. Where only a bound is given, the exact number is not on record here.

The target in one test is His-tagged N-terminal ATP binding domain (amino acid residues 9-236) of HSP90α (Homo sapiens, UniProt P07900). The experiment in a line: HSP90 inhibitor binding potency: TRF competition binding assay. The settings on record: Table I; read-out: Hsp90 IC50 Range. The gist of the method:
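His-tagged HSP90α N-domain (residues 9-236) incubated 2 h at room temperature with biotinylated radicicol and increasing compound in 50 mM HEPES, 6 mM MgCl2, 20 mM KCl, 0.1% BSA. Bound tracer captured on streptavidin plates, detected with europium anti-His antibody by time-resolved fluorescence; IC50 derived.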
In general, pIC50 refers to −log10 of the IC50, conventionally taken in molar units. For `Cc1nc(N)nc2c1C(=O)CC(c1cccc3ccccc13)C2` (centres unmarked) [Compound 159, 2-amino-4-methyl-7-(1-naphthyl)-7,8-dihydroquinazolin-5(6H)-one], the pIC50 is 5.00 to 6.00.

As to `Cc1nc(N)nc2c1C(=O)CC(c1c(O)cccc1C1=CCCCC1)C2` (centres unmarked) [Compound 62, 2-amino-7-(2-cyclohex-1-enyl-6-hydroxy-phenyl)-4-methyl-7,8-dihydro-6H-quinazolin-5-one], the pIC50 is above 6.00.

Consider `Cc1nc(N)nc2c1C(=O)CC(c1cccnc1)C2` (centres unmarked) [Compound 160, 2-amino-4-methyl-7-pyridin-3-yl-7,8-dihydroquinazolin-5(6H)-one], for which the pIC50 is below 5.00.

On to `Cc1nc(N)nc2c1C(=O)CC(c1ccccc1-c1ccsc1)C2` (centres unmarked) [Compound 46, 2-amino-4-methyl-7-(2-thien-3-ylphenyl)-7,8-dihydroquinazolin-5(6H)-one], for which the pIC50 was above 6.00.

`Cc1nc(N)nc2c1C(=O)CC(c1ccccc1N1CCCC1=O)C2` (centres unmarked) [Compound 163, 2-amino-4-methyl-7-[2-(2-oxo-pyrrolidin-1-yl)-phenyl]-7,8-dihydro-6H-quinazolin-5-one]: the pIC50 is 5.00 to 6.00.

On to `COc1cccc(Oc2ccccc2C2CC(=O)c3c(C)nc(N)nc3C2)n1` (centres unmarked) [Compound 146, 2-amino-7-{2-[(6-methoxypyridin-2-yl)oxy]phenyl}-4-methyl-7,8-dihydroquinazolin-5(6H)-one], for which the pIC50 is above 6.00.

As for `Cc1nc(N)nc2c1C(=O)CC(c1ccccc1OCCN1CCN(C)CC1)C2` (centres unmarked) [Compound 152, 2-amino-4-methyl-7-{2-[2-(4-methyl-piperazin-1-yl)-ethoxy]-phenyl}-7,8-dihydro-6H-quinazolin-5-one], the pIC50 was 5.00 to 6.00.

Consider `Cc1nc(N)nc2c1C(=O)CC(c1ccccc1-c1cccc(C#N)c1)C2` (centres unmarked) [Compound 65, 2′-(2-amino-4-methyl-5-oxo-5,6,7,8-tetrahydroquinazolin-7-yl)-1,1′-biphenyl-3-carbonitrile], for which the pIC50 was 5.00 to 6.00.

`Cc1nc(N)nc2c1C(=O)CC(c1ccc(Cl)cc1Cl)C2` (centres unmarked) [Compound 6, 2-amino-7-(2,4-dichlorophenyl)-4-methyl-7,8-dihydroquinazolin-5(6H)-one]: the pIC50 is 5.00 to 6.00.

As to `Cc1nc(N)nc2c1C(=O)CC(c1nn(C)cc1C1CCCCC1)C2` (centres unmarked) [Compound 47, 2-amino-7-(4-cyclohexyl-1-methyl-1H-pyrazol-3-yl)-4-methyl-7,8-dihydro-6H-quinazolin-5-one], the negative logarithm of the IC50 (pIC50) was above 6.00.

With `Cc1ccc(F)c(-c2ccccc2C2CC(=O)c3c(C)nc(N)nc3C2)c1` (centres unmarked) [Compound 76, 2-amino-7-(2′-fluoro-5′-methyl-1,1′-biphenyl-2-yl)-4-methyl-7,8-dihydroquinazolin-5(6H)-one], the pIC50 was above 6.00.

For `Cc1nc(N)nc2c1C(=O)CC(c1ccccc1-c1cccc(CN(C)C)c1)C2` (centres unmarked) [Compound 174, 2-amino-7-{3′-[(dimethylamino)methyl]-1,1′-biphenyl-2-yl}-4-methyl-7,8-dihydroquinazolin-5(6H)-one], the negative-log IC50 (pIC50) is 5.00 to 6.00.

`Cc1nc(N)nc2c1C(=O)CC(c1nn(C)cc1Br)C2` (centres unmarked) [Compound 11, 2-amino-7-(4-bromo-1-methyl-1H-pyrazol-3-yl)-4-methyl-7,8-dihydro-6H-quinazolin-5-one]: the pIC50 is below 5.00.

Regarding `Cc1nc(N)nc2c1C(=O)CC(c1ccccc1-c1cccnc1Cl)C2` (centres unmarked) [Compound 80, 2-amino-7-[2-(2-chloropyridin-3-yl)phenyl]-4-methyl-7,8-dihydroquinazolin-5(6H)-one], the pIC50 is above 6.00.

Turning to `Cc1nc(N)nc2c1C(=O)CC(c1ccccc1Oc1cc[nH]c(=O)c1)C2` (centres unmarked) [Compound 167, 2-amino-4-methyl-7-[2-(2-oxo-1,2-dihydro-pyridin-4-yloxy)-phenyl]-7,8-dihydro-6H-quinazolin-5-one], the negative-log IC50 (pIC50) was 5.00 to 6.00.

Consider `Cc1nc(N)nc2c1C(=O)CC(c1cccc(-c3ccccn3)c1)C2` (centres unmarked) [Compound 28, 2-amino-4-methyl-7-(3-pyridin-2-ylphenyl)-7,8-dihydroquinazolin-5(6H)-one], for which the pIC50 is below 5.00.

Staying with this test, now noted: Table II; read-out: Hsp90 IC50 Range.
Turning to `Cc1nc(N)nc2c1C(=O)CC(c1ccc(F)cc1-c1nccnc1Cl)C2` (centres unmarked) [Compound 228, 2-amino-7-[2-(3-chloro-pyrazin-2-yl)-4-fluoro-phenyl]-4-methyl-7,8-dihydro-6H-quinazolin-5-one], the pIC50 is 5.00 to 6.00.

Consider `CCC(CC)Oc1cc(F)ccc1C1CC(=O)c2c(C)nc(N)nc2C1` (centres unmarked) [Compound 267, 2-amino-7-[2-(1-ethyl-propoxy)-4-fluoro-phenyl]-4-methyl-7,8-dihydro-6H-quinazolin-5-one], for which the pIC50 is above 6.00.

For `COc1cccc(-n2ccnc2C2CC(=O)c3c(C)nc(N)nc3C2)n1` (centres unmarked) [Compound 193, 2-amino-7-[1-(6-methoxy-pyridin-2-yl)-1H-imidazol-2-yl]-4-methyl-7,8-dihydro-6H-quinazolin-5-one], the pIC50 was above 6.00.

In the case of `COc1nc(-n2ccnc2[C@@H]2CC(=O)c3c(C)nc(N)nc3C2)ncc1C` [Compound 208, (S)-2-amino-7-[1-(4-methoxy-5-methyl-pyrimidin-2-yl)-1H-imidazol-2-yl]-4-methyl-7,8-dihydro-6H-quinazolin-5-one], the negative-log IC50 (pIC50) was above 6.00.

`Cc1nc(N)nc2c1C(=O)CC(c1ncccc1OC1CCCC1)C2` (centres unmarked) [Compound 177, 2-amino-7-(3-cyclopentyloxy-pyridin-2-yl)-4-methyl-7,8-dihydro-6H-quinazolin-5-one]: the negative-log IC50 (pIC50) was above 6.00.

Regarding `COc1cccc(-c2cccc(F)c2C2CC(=O)c3c(C)nc(N)nc3C2)n1` (centres unmarked) [Compound 220, 2-amino-7-[2-fluoro-6-(6-methoxy-pyridin-2-yl)-phenyl]-4-methyl-7,8-dihydro-6H-quinazolin-5-one], the negative-log IC50 (pIC50) is above 6.00.

Take `CNc1cncc(-c2cc(F)ccc2C2CC(=O)c3c(C)nc(N)nc3C2)n1` (centres unmarked) [Compound 296, 2-amino-7-[4-fluoro-2-(6-methylamino-pyrazin-2-yl)-phenyl]-4-methyl-7,8-dihydro-6H-quinazolin-5-one]: the negative-log IC50 (pIC50) is above 6.00.

For `COc1nc(-c2cc(F)ccc2C2CC(=O)c3c(C)nc(N)nc3C2)cnc1Cl` (centres unmarked) [Compound 334, 2-amino-7-[2-(5-chloro-6-methoxy-pyrazin-2-yl)-4-fluoro-phenyl]-4-methyl-7,8-dihydro-6H-quinazolin-5-one], the negative-log IC50 (pIC50) is above 6.00.

On to `Cc1nc(N)nc2c1C(=O)CC(c1cnccc1-c1cccc(Br)c1)C2` (centres unmarked) [Compound 187, 2-amino-7-[4-(3-bromo-phenyl)-pyridin-3-yl]-4-methyl-7,8-dihydro-6H-quinazolin-5-one], for which the pIC50 is above 6.00.

As to `COc1cc(-n2ccnc2C2CC(=O)c3c(C)nc(N)nc3C2)c(OC)cc1Cl` (centres unmarked) [Compound 327, 2-amino-7-[1-(4-chloro-2,5-dimethoxy-phenyl)-1H-imidazol-2-yl]-4-methyl-7,8-dihydro-6H-quinazolin-5-one], the pIC50 was above 6.00.

Consider `Cc1nc(N)nc2c1C(=O)C(NC(=O)c1ccccc1)C(c1ccccc1)C2` (centres unmarked) [Compound 241, N-(2-amino-4-methyl-5-oxo-7-phenyl-5,6,7,8-tetrahydro-quinazolin-6-yl)-benzamide], for which the pIC50 is below 5.00.

For `COc1ccc(Br)c(C2CC(=O)c3c(C)nc(N)nc3C2)c1` (centres unmarked) [Compound 239, 2-amino-7-(2-bromo-5-methoxy-phenyl)-4-methyl-7,8-dihydro-6H-quinazolin-5-one], the pIC50 was 5.00 to 6.00.

As for `Cc1nc(N)nc2c1C(=O)CC(c1ccc(F)cc1OCC1CCCC1)C2` (centres unmarked) [Compound 263, 2-amino-7-(2-cyclopentylmethoxy-4-fluoro-phenyl)-4-methyl-7,8-dihydro-6H-quinazolin-5-one], the pIC50 is above 6.00.

With `Cc1nc(N)nc2c1C(=O)CC(c1ccc(F)cc1OC1CCCC1)C2` (centres unmarked) [Compound 181, 2-amino-7-(2-cyclopentyloxy-4-fluoro-phenyl)-4-methyl-7,8-dihydro-6H-quinazolin-5-one], the pIC50 is above 6.00.

As to `Nc1nc(CCc2ccccc2)c2c(n1)CC(c1ccccc1)CC2=O` (centres unmarked) [Compound 305, 2-amino-4-phenethyl-7-phenyl-7,8-dihydro-6H-quinazolin-5-one], the pIC50 was below 5.00.

As for `COc1ccnc(-c2cc(F)ccc2C2CC(=O)c3c(C)nc(N)nc3C2)n1` (centres unmarked) [Compound 257, 2-amino-7-[4-fluoro-2-(4-methoxy-pyrimidin-2-yl)-phenyl]-4-methyl-7,8-dihydro-6H-quinazolin-5-one], the negative logarithm of the IC50 (pIC50) was above 6.00.

As for `Cc1nc(N)nc2c1C(=O)CC(c1ncccc1OC(C)C)C2` (centres unmarked) [Compound 175, 2-amino-7-(3-isopropoxy-pyridin-2-yl)-4-methyl-7,8-dihydro-6H-quinazolin-5-one], the pIC50 is above 6.00.

Turning to `CCc1cc(-n2ccnc2C2CC(=O)c3c(C)nc(N)nc3C2)ccc1C` (centres unmarked) [Compound 333, 2-amino-7-[1-(3-ethyl-4-methyl-phenyl)-1H-imidazol-2-yl]-4-methyl-7,8-dihydro-6H-quinazolin-5-one], the pIC50 was 5.00 to 6.00.

For `COc1cncc(-c2cc(F)ccc2[C@H]2CC(=O)c3c(C)nc(N)nc3C2)n1` [Compound 225, (R)-2-amino-7-[4-fluoro-2-(6-methoxy-pyrazin-2-yl)-phenyl]-4-methyl-7,8-dihydro-6H-quinazolin-5-one], the negative logarithm of the IC50 (pIC50) was 5.00 to 6.00.

On to `COc1cccc(-c2scnc2[C@@H]2CC(=O)c3c(C)nc(N)nc3C2)n1` [Compound 298, (S)-2-amino-7-[5-(6-methoxy-pyridin-2-yl)-thiazol-4-yl]-4-methyl-7,8-dihydro-6H-quinazolin-5-one], for which the pIC50 was above 6.00.

On to `Cc1nc(N)nc2c1C(=O)CC(c1ccc(F)cc1-c1nccnc1F)C2` (centres unmarked) [Compound 231, 2-amino-7-[4-fluoro-2-(3-fluoro-pyrazin-2-yl)-phenyl]-4-methyl-7,8-dihydro-6H-quinazolin-5-one], for which the pIC50 is above 6.00.

As for `Cc1nc(N)nc2c1C(=O)CC(c1nccn1C1CCCC1)C2` (centres unmarked) [Compound 189, 2-amino-7-(1-cyclopentyl-1H-imidazol-2-yl)-4-methyl-7,8-dihydro-6H-quinazolin-5-one], the pIC50 is above 6.00.
